This is an account of results in US20240216320A1, “COMPOSITIONS AND METHODS FOR TREATING SICKLE CELL DISEASE” (Augusta University Research Institute, Inc., priority 2019, published 2024).

For series [1], the system named is HbF in sickle erythroid precursors. In words: Western blot of HbF in sickle erythroid precursors. The class given is cell-based, human. As to conditions: sickle erythroid precursors, 0.25 mM. The method, then: (§1) For primary cultures, erythroid precursors were generated from peripheral blood mononuclear cells isolated from discard blood of sickle patients under an IRB exempt protocol. These cells were cultured in a two-phase liquid culture system previously published (Li, B., et al., Haematologica 103:e384-e387 (2018)).
(§2) During phase 1, cells were grown in Iscove's Dulecco Media with 15% fetal bovine serum, 15% human AB serum, 10 ng/mL interleukin-3, 50 ng/mL stem cell factor and 2 IU/mL of erythropoietin (Peprotech, Rocky Hill NJ). Phase 2 of culture initiated on day 7 with a similar medium without stem cell factor and interleukin-3. On day 8, erythroid precursors were treated with AN-233 (0.125 mM and 0.25 mM), ethanol (EtOH; […] and 0.016%) and the positive control HU (100 μM) for 48 h and harvested for the various analyses.
Western blot analysis was performed using whole cell lysates generated with RIPA buffer (ThermoScientific, Rockford, IL) supplemented with proteinase and phosphatase inhibitor cocktails. For histone acetylation studies, nuclear lysates were prepared by suspending cells in buffer containing 20 mM HEPES, pH 7.9, 50 mM KCl, 420 mM NaCl, 0.1 mM EDTA, 1 mM DTT, 10% glycerol and protease inhibitor mixture for 30 min, followed by centrifugation. […]
For orientation: A western blot detects proteins with antibodies after separation by electrophoresis.

For series [2], the system named is intracellular heme in K562 cells. In words: QuantiChrom heme quantitation assay in K562 cells. The class given is cell-based. The method, then:
The total cellular heme content was determined using the QuantiChrom™ Heme Assay Kit (DIHM-250, BioAssay Systems, Hayward, CA) per the manufacturer's instructions. Briefly, 25 μL of cellular lysate was mixed with 100 μL of detection reagent. The mixture was incubated at room temperature for 5 min followed by measuring the absorbance at 400 nm on a microplate reader. The total heme concentration was calculated based on a formula provided by the manufacturer: Heme concentration=(OD^sample−OD^blank)/(OD^calibrator−OD^blank)×125× dilution factor. This value was normalized by total protein in each sample.

Series [3] relates to p38 MAPK. In words: Western blot of phosphorylated p38 MAPK in K562 cells. It counts as cell-based. The conditions noted are these: 0.25 mM. The method, then:
(§3) Western blot analysis was performed using whole cell lysates generated with RIPA buffer (ThermoScientific, Rockford, IL) supplemented with proteinase and phosphatase inhibitor cocktails. For histone acetylation studies, nuclear lysates were prepared by suspending cells in buffer containing 20 mM HEPES, pH 7.9, 50 mM KCl, 420 mM NaCl, 0.1 mM EDTA, 1 mM DTT, 10% glycerol and protease inhibitor mixture for 30 min, followed by centrifugation. Antibodies against HbF (51-7), HbA (37-8), and Tata binding protein (TBP; N-12) were purchased from Santa Cruz Biotechnology (Dallas TX); antibodies against β-actin (A5316) and rabbit IgG (18140) were purchased from Sigma (St. Louis MO). Acetylated histone H3 (AcH3; 06-599) and AcH4 (06-866) antibodies were purchased from Millipore (Burlington, MA).
The second active metabolite of AN-233 hydrolysis is BA. It was previously reported that HbF induction by BA occurs through p38 MAPK activation.

Series [4] concerns Heme-regulated inhibitor (HRI) kinase. In words: Western blot of HRI in K562 cells. It counts as cell-based. As to conditions: dose-dependent, maximal. The method, then: as §3
Since the biosynthesis of heme prosthetic group requires ALA as a precursor and AN-233 is hydrolyzed to BA and ALA, it was next determined whether heme levels are altered after treatments of K562 cells. Using a colorimetric quantitative assay, a 1.5-fold and 1.8-fold increase (p<0.05) in intracellular heme was observed after 0.25 mM and 0.5 mM AN-233 treatment respectively (FIG. 2A). […] Therefore, K562 cells were treated with AN-233 and phosphorylated and total HRI and eIF2αP levels were measured. […]

Series [5] relates to γ-globin promoter. Put plainly: ChIP assay, histone acetylation in γ-globin promoter. It counts as cell-based, human. The conditions noted are these: for enrichment for AcH3 in the γ-globin promoter: compared to IgG control, dose-dependent. The method, then:
ChIP assay was performed as previously published by our group with immunoprecipitations for AcH3, AcH4 and TBP antibodies (Santa Cruz Biotechnology) and rabbit IgG as a control. Primers used to quantify in vivo chromatin modifications are as follows: locus control region DNase I hypersensitive site 2 (LCR-HS2) forward […] (SEQ ID NO:1) and reverse […] (SEQ ID NO:2), γ-globin promoter (forward CTGAAACGGTCCCTGGCTA (SEQ ID NO:3), reverse […] (SEQ ID NO:4)), and β-globin promoter (forward […] (SEQ ID NO:5), reverse […] (SEQ ID NO:6)).

Series [6] has as its system anemic C57BL mouse model. As to conditions: cited from earlier work.
In series [7] the test system is acetylated histone H3 (AcH3). Put plainly: Western blot of acetylated histone H3 in nuclear lysates of sickle erythroid cells. It counts as cell-based, human. The method, then:
as §3

Series [8] has as its system HbF in K562 cells. In words: HbF positive cells (F-cells) by flow cytometry in K562 cells. The class given is cell-based. As to conditions: K562 cells, 0.125 and 0.25 mM, 48 h, maximum; 10% in EtOH treated controls. The method, then: K562 cells were cultured in Iscove's Modified Dulbecco medium (IMDM) with 10% fetal bovine serum, penicillin (100 U/mL) and streptomycin (0.1 mg/mL). Drug inductions for K562 cells were conducted for 48 h and cell viability evaluated with 0.4% Trypan blue exclusion. Cell counts were performed a dual chamber apparatus and the percentage viability obtained using an Automated Cell Counter (Bio-Rad).
(§4) To measure percent HbF positive cells (F-cells), K562 cells and erythroid precursors were fixed with 1% formaldehyde, permeabilized with ice-cold acetone:methanol (4:1 ratio) and stained with fluorescein isothiocyanate (FITC) anti-HbF antibody (ab19365, Abcam Cambridge MA) and isotype control IgG antibody (MBS524511, MyBioSource, San Diego CA) was used to detect non-specific staining. The F-cells levels and HbF protein levels measured by mean fluorescence intensity (MFI) were analyzed on an LSR-II flow cytometer (BD Biosciences, San Jose CA) and FlowJo analysis to generate quantitative data.
A general note: In flow cytometry, cells or beads pass a laser one at a time.

Series [9] relates to HbF in sickle erythroid precursors. In words: F-cells and HbF MFI by flow cytometry in sickle erythroid precursors. The class given is cell-based, human. The conditions noted are these: sickle erythroid precursors. The method, then: as §1, §2, §4

Turning to `CCCC(=O)OC(C)OC(=O)CCC(=O)CN` (stereo not shown) [AN-233, 1-(butyryloxy)ethyl-5-amino-4-oxopentanoate], the “increase in HbF protein by Western blot” value in series [1] is reported as 2.6 fold. In addition, the results for the “increase in intracellular heme” value in series [2] (0.25 mM) and in [2] (0.5 mM) were 1.5 fold and 1.8 fold, respectively. Also, in [3], the “increase in phosphorylated p38 MAPK” value is given as 1.4 fold. In addition, in series [4], the “decrease in HRI” value was determined as 52%. For the same compound, the “AcH4 levels in the γ-globin promoter” value in [5] (ChIP) is on record as “increased”. For the same compound, the “enrichment for AcH3 in the γ-globin promoter” value in series [5] (first (lower) value) was 12 fold; in [5] (second (higher) value) it was 30 fold. Also, the toxicity entry in [6] (anemic C57BL mice, oral, 4 weeks, up to 400 mg/kg) is “without toxicity”. Moreover, in [6] (anemic C57BL mice, oral, 4 weeks), the hemoglobin levels result is given as “improved”. Further, the “histone acetylation in spleen tissue” value in series [6] (tissue harvested 4 to 6 h after one oral dose) is on record as “histone hyper-acetylation”. The “global AcH3 levels in nuclear lysates” value in [7] was “increased global AcH3 levels”. Besides, the F-cells in series [8] was determined as 19%; in series [9] (0.125 and 0.25 mM, maximal, from 16.31%) it was 32.5%. For the same compound, in [9] (0.125 and 0.25 mM, 48 h, maximal), the “increase in F-cells” value was determined as 2 fold. The “increase in HbF measured by MFI” value in [9] (48 h) is given as 1.5 fold.
